Tests used:
Assay type in all cases: physicochemical
[1] = Particle size distribution of hydrogen fumarate salt 11; conditions: for D-value: in µm (unit assumed)
Protocol: VMD=[…]; STD=[…]; Duration=0.04; Copt=2.90.

[2] = Polymorph formation of hydrogen fumarate salt 11 (slurry, anti-solvent, heat-cool); parameters: key to Observation 50° C. / observation rt / observation 60° C.: “s” = slurry; “c” = clear
Protocol: Formation of polymorphs of the hydrogen fumarate salt 11 was examined. About 15 mg of hydrogen fumarate salt 11 was combined with 0.5 mL of a selected organic solvent in a vial. The mixture was stirred at 700 RPM at 50° C. for 2 days. If a solid precipitate was present, the solid precipitate was then removed by centrifugation (14,000 RPM, 5 min) and dried under vacuum at 30° C. (Method I). If a solid precipitate was not present, the solvent was removed by evaporation under vacuum at 30° C. (Method II). In either case, the resulting material was evaluated by XRPD.
Polymorph formation was examined with a slurry method using various solvents. About 500 mg of hydrogen fumarate salt 11 was combined with 50 mL of DMSO and 1 mL DMF to afford a saturated solution. Anti-solvent (no more than 5x solution volume) chosen from EtOH, iPrOH, acetone, water, and EtOAc was added. In no case was a precipitate formed.
Polymorph formation was further examined with a heat-cool method using various solvents. About 100 mg of hydrogen fumarate salt 11 was combined with 1 mL of a selected solvent. The mixture was stirred at 700 RPM for 4 hrs at 60° C., then allowed to cool to room temperature. The cycle was repeated twice. If a solid precipitate was present, the solid precipitate was then removed by centrifugation and dried under vacuum at 30° C. (Method I). If a solid precipitate was not present, the solvent was removed by evaporation (Method II). In either case, the resulting material was evaluated by XRPD.

[3] = Stability (50° C., 40° C./75% RH, light; 1 week); conditions: for XRPD change? / purity: bulk, 1 week
Protocol: The stability of the free base 1 and the selected salts 8, 9, 10, and 11 was evaluated. For each material, aliquots were set up at each of conditions (50° C., 40° C./75% RH, light) at given time points (initial and 1 week). PXRD diffractograms of the hydrogen fumarate salt 11 is shown in FIG. 17, with trace (a) showing the initial salt, trace (b) showing the salt after light treatment, trace (c) showing the salt after storage at 40° C. and 75% relative humidity for 1 week, and (d) showing the salt after storage at 50° C. for 1 week.

[4] = Thermogravimetric analysis / DSC weight loss; conditions: <120° C.
Protocol: Differential scanning calorimetry (“DSC”) was performed with a TA Q2000 instrument, using approx 1 mg of sample in a crimped Al pan, heating from room temperature to 300° C. at a rate of 10° C./min.
Thermogravimetric analysis (“TGA”) was performed with a TA Q5000 instrument, using approx 2-5 mg of sample in an open Pt pan, heating from room temperature to 300° C. at a rate of 10° C./min.

[5] = Dynamic vapor sorption (DVS), hygroscopicity
Protocol: Dynamic vapor sorption (“DVS”) was performed at 25° C., using approx 10-15 mg of sample and N2 gas at a flow rate of 200 mL/min, dm/dt=0.01% min, minimum dm/dt stability duration of 10 min, max equilibration time of 180 min, drying at 0% RH for 120 min, scanning from 0% RH to 90% RH to 0% RH with a step size of 10% RH.
Total cycling time varied, but in all cases was about 200-250 min.

- PSD D90 ([1]; 8500 mg scale-up batch): D90 = 43 uM
- D-value ([1]; % level 5): 1.20
- D-value ([1]; % level 10): 2.21
- D-value ([1]; % level 15): 3.64
- D-value ([1]; % level 20): 5.39
- D-value ([1]; % level 25): 7.16
- D-value ([1]; % level 30): 8.89
- D-value ([1]; % level 35): 10.58
- D-value ([1]; % level 40): 12.28
- D-value ([1]; % level 45): 14.04
- D-value ([1]; % level 50): 15.88
- D-value ([1]; % level 55): 17.79
- D-value ([1]; % level 60): 19.93
- D-value ([1]; % level 65): 22.30
- D-value ([1]; % level 70): 24.85
- D-value ([1]; % level 75): 28.06
- D-value ([1]; % level 80): 31.79
- D-value ([1]; % level 85): 36.34
- D-value ([1]; % level 90): 42.91
- D-value ([1]; % level 95): 54.73
- observation 60° C. ([2]; heat-cool method, Acetone): s
- observation rt ([2]; heat-cool method, Acetone): s
- observation 60° C. ([2]; heat-cool method, EtOAc): s
- observation rt ([2]; heat-cool method, EtOAc): s
- observation 60° C. ([2]; heat-cool method, EtOH): s
- observation rt ([2]; heat-cool method, EtOH): s
- XRPD results ([2]; heat-cool method, THF): amorphous
- observation 60° C. ([2]; heat-cool method, THF): c
- observation rt ([2]; heat-cool method, THF): c
- observation 60° C. ([2]; heat-cool method, iPrOH): s
- observation rt ([2]; heat-cool method, iPrOH): s
- Observation 50° C. ([2]; slurry 50° C., 2 days, 1/1 (v/v) EtOH/H2O): c
- Observation 50° C. ([2]; slurry 50° C., 2 days, 1/1 (v/v) acetone/H2O): c
- Observation 50° C. ([2]; slurry 50° C., 2 days, Acetone): c
- Observation 50° C. ([2]; slurry 50° C., 2 days, CH2Cl2): s
- Observation 50° C. ([2]; slurry 50° C., 2 days, CH3CN): s
- Observation 50° C. ([2]; slurry 50° C., 2 days, Dioxane): c
- Observation 50° C. ([2]; slurry 50° C., 2 days, EtOAc): s
- Observation 50° C. ([2]; slurry 50° C., 2 days, EtOH): c
- Observation 50° C. ([2]; slurry 50° C., 2 days, H2O): s
- Observation 50° C. ([2]; slurry 50° C., 2 days, Heptane): s
- Observation 50° C. ([2]; slurry 50° C., 2 days, MeOH): c
- XRPD pattern ([2]; slurry 50° C., 2 days, MeOH): almost
- Observation 50° C. ([2]; slurry 50° C., 2 days, Toluene): s
- Observation 50° C. ([2]; slurry 50° C., 2 days, iPrOH): c
- XRPD change? ([3]; 40° C., 75% RH): no
- purity ([3]; 40° C., 75% RH): 99.88%
- XRPD change? ([3]; 50° C.): no
- purity ([3]; 50° C.): 99.89%
- initial purity ([3]; initial (before storage)): 99.85%
- XRPD change? ([3]; light): no
- purity ([3]; light): 99.89%
- weight loss (TGA, %) [4]: 0.11% (<120° C.)
- Maximum sorption ([5]; DVS, 25° C.): 0.47%
- Hygroscopicity (0-40% RH) ([5]; DVS, 25° C., 0-40% RH): 0.1%
- Hygroscopicity (0-90% RH) ([5]; DVS, 25° C., 0-90% RH): 0.47%
- Change in mass (%) Desorption ([5]; DVS, Target % P/P0 0.0): −0.0114%
- Change in mass (%) Sorption ([5]; DVS, Target % P/P0 0.0): 0.0000%
- Change in mass (%) Desorption ([5]; DVS, Target % P/P0 10.0): 0.0209%
- Change in mass (%) Hysteresis ([5]; DVS, Target % P/P0 10.0): 0.0010%
- Change in mass (%) Sorption ([5]; DVS, Target % P/P0 10.0): 0.0200%
- Change in mass (%) Desorption ([5]; DVS, Target % P/P0 20.0): 0.0448%
- Change in mass (%) Hysteresis ([5]; DVS, Target % P/P0 20.0): 0.0067%
- Change in mass (%) Sorption ([5]; DVS, Target % P/P0 20.0): 0.0381%
- Change in mass (%) Desorption ([5]; DVS, Target % P/P0 30.0): 0.0866%
- Change in mass (%) Hysteresis ([5]; DVS, Target % P/P0 30.0): 0.0286%
- Change in mass (%) Sorption ([5]; DVS, Target % P/P0 30.0): 0.0581%
- Change in mass (%) Desorption ([5]; DVS, Target % P/P0 40.0): 0.1238%
- Change in mass (%) Hysteresis ([5]; DVS, Target % P/P0 40.0): 0.0267%
- Change in mass (%) Sorption ([5]; DVS, Target % P/P0 40.0): 0.0971%
- Change in mass (%) Desorption ([5]; DVS, Target % P/P0 50.0): 0.1695%
- Change in mass (%) Hysteresis ([5]; DVS, Target % P/P0 50.0): 0.0352%
- Change in mass (%) Sorption ([5]; DVS, Target % P/P0 50.0): 0.1343%
- Change in mass (%) Desorption ([5]; DVS, Target % P/P0 60.0): 0.2285%
- Change in mass (%) Hysteresis ([5]; DVS, Target % P/P0 60.0): 0.0457%
- Change in mass (%) Sorption ([5]; DVS, Target % P/P0 60.0): 0.1828%
- Change in mass (%) Desorption ([5]; DVS, Target % P/P0 70.0): 0.2885%
- Change in mass (%) Hysteresis ([5]; DVS, Target % P/P0 70.0): 0.0438%
- Change in mass (%) Sorption ([5]; DVS, Target % P/P0 70.0): 0.2447%
- Change in mass (%) Hysteresis ([5]; DVS, Target % P/P0 80.0): 0.0390%
- Change in mass (%) Sorption ([5]; DVS, Target % P/P0 80.0): 0.3295%
- Change in mass (%) Desorption ([5]; DVS, Target % P/P0 90.0): 0.4742%
- Change in mass (%) Sorption ([5]; DVS, Target % P/P0 90.0): 0.4742%
- Hygroscopicity; form change ([5]; form change after DVS): no change
SMILES: CC(C)c1nc(-c2cnc(N)c(OC(F)(F)F)c2)cn1C12CC(N3CCOCC3)(C1)C2.O=C(O)/C=C/C(=O)O [Example 11, 5-(2-isopropyl-1-(3-morpholinobicyclo[1.1.1]pentan-1-yl)-1H-imidazol-4-yl)-3-(trifluoromethoxy)pyridin-2-amine hydrogen fumarate]

— US20190382396A1, “SALTS OF BICYCLO[1.1.1]PENTANE INHIBITORS OF DUAL LEUCINE ZIPPER (DLK) KINASE FOR THE TREATMENT OF DISEASE” (Board of Regents, The University of Texas System, priority 2018, published 2019)
